The source of these data is patent US20040166160A1, “Methods and dosage forms with modified viscosity layers” (priority 2003, published 2004).

For data set [1] the following is noted: cited from earlier work.
The conditions of data set [2]: in vivo; cited from earlier work.
For data set [3] the following is noted: in vivo; cited from earlier work. This is another data set of the same source.
For data set [4] the following is noted: FIG. 6. The text has this: FIG. 6 illustrates blood plasma concentrations at various times achieved through various means of delivery. This figure illustrates the time necessary to achieve a particular blood plasma concentration.

Counter-ions that a name gives are not always drawn.

For `CN(C)CCC=C1c2ccccc2C=Cc2ccccc21` [Cyclobenzaprine hydrochloride, cyclobenzaprine hydrochloride], the solubility in alcohol entry in data set [1] (alcohol) is given as “freely soluble”. Moreover, the “solubility in hydrocarbon solvents” value in data set [1] (hydrocarbon solvents) is reported as “insoluble”. Further, in data set [1] (isopropanol), the solubility in isopropanol result was “sparingly soluble”. Moreover, the solubility in water result in data set [1] (water) is “freely soluble”.
Turning to `CN(C)CCC=C1c2ccccc2C=Cc2ccccc21` [cyclobenzaprine], in data set [2], the half-life is 24 to 72 h. The reported side effects result in data set [3] was “sedation and dry mouth”. For the same molecule, in data set [4], the colonic absorption result is listed as “colonic absorption”.
